US11534457B2, “Use of dextran sulfate” (priority 2017, dated 2022)
“Also recorded” adds a separate entry of the source.

Assays:
[1] = tested on: closed-head diffuse severe TBI (sTBI); assay: sTBI in rats, dose study, HPLC of free amino acids and amino group containing compounds (Example 7); format: in vivo, Male Wistar rats
[2] = tested on: human primary cell-based systems; assay: BioMAP Diversity PLUS panel (whole panel, profile and similarity analysis)
Source text: In this study LMW-DS was characterized by profiling in the BioMAP® Diversity PLUS panel. The BioMAP® panel consists of human primary cell-based systems designed to model different aspects of the human body in an in vitro format. The 12 systems in the BioMAP® Diversity PLUS panel (Table 32) allow test agent characterization in an unbiased way across a broad set of systems modeling various human disease states. The BioMA®P systems are constructed with one or more primary cell types from healthy human donors, with stimuli, such as cytokines or growth factors, added to capture relevant signaling networks that naturally occur in human tissue or pathological conditions. Vascular biology is modeled in both a Th1 (3C system) and a Th2 (4H system) inflammatory environment, as well as in a Th1 inflammatory state specific to arterial smooth muscle cells (CASM3C system). Additional systems recapitulate aspects of the systemic immune response including monocyte-driven Th1 inflammation (LPS system) or T cell stimulation (SAg system), chronic Th1 inflammation driven by macrophage activation (IMphg system) and the T cell-dependent activation of B cells that occurs in germinal centers (BT system). The BE3C system (Th1) and the BF4T system (Th2) represent airway inflammation of the lung, while the MyoF system models myofibroblast-lung tissue remodeling. Lastly, skin biology is addressed in the KF3CT system modeling Th1 cutaneous inflammation and the HDF3CGF system modeling wound healing.
Each test agent generates a signature BioMAP® profile that is created from the changes in protein biomarker readouts within individual system environments. Biomarker readouts (7-17 per system) are selected for therapeutic and biological relevance, are predictive for disease outcomes or specific drug effects and are validated using agents with known mechanism of action (MoA). Each readout is measured quantitatively by immune-based methods that detect protein, e.g., ELISA, or functional assays that measure proliferation and viability. BioMAP® readouts are diverse and include cell surface receptors, cytokines, chemokines, matrix molecules and enzymes. In total, the BioMAP® Diversity PLUS panel contains 148 biomarker readouts that capture biological changes that occur within the physiological context of the particular BioMAP® system.
Four concentrations of LMW-DS (150 nM, 440 nM, 1.3 μM, 4 μM) were investigated in the BioMAP® Diversity PLUS panel by Eurofins.
Human primary cells in BioMAP systems are used at early passage (passage 4 or earlier) to minimize adaptation to cell culture conditions and preserve physiological signaling responses. All cells are from a pool of multiple donors (n=2-6), commercially purchased and handled according to the recommendations of the manufacturers. Human blood derived CD14^+ monocytes are differentiated into macrophages in vitro before being added to the /Mphg system. Abbreviations are used as follows: Human umbilical vein endothelial cells (HUVEC), Peripheral blood mononuclear cells (PBMC), Human neonatal dermal fibroblasts (HDFn), B cell receptor (BCR), T cell receptor (TCR) and Toll-like receptor (TLR).
Cell types and stimuli used in each system are as follows: 3C system [HUVEC+(IL-1β, TNFα and IFNγ)], 4H system [HUVEC+(IL-4 and histamine)], LPS system [PBMC and HUVEC+LPS (TLR4 ligand)], SAg system [PBMC and HUVEC+TCR ligands], BT system [CD19^+ B cells and PBMC+(a-IgM and TCR ligands)], BF4T system [bronchial epithelial cells and HDFn+(TNFα and IL-4)], BE3C system [bronchial epithelial cells+(IL-1β, TNFα and IFNγ)], CASM3C system [coronary artery smooth muscle cells+(IL-1β, TNFα and IFNγ)], HDF3CGF system [HDFn+(IL-1β, TNFα, IFNγ, EGF, bFGF and PDGF-BB)], KF3CT system [keratinocytes and HDFn+(IL-1β, TNFα, IFNγ and TGFβ)], MyoF system [differentiated lung myofibroblasts+(TNFα and TGFβ)] and /Mphg system [HUVEC and M1 macrophages+Zymosan (TLR2 ligand)].
Systems are derived from either single cell types or co-culture systems. […]

[3] = 1 mg/kg s.c. single, 30 min post-sTBI, sacrifice 2 days
[4] = 5 mg/kg s.c. single, 30 min post-sTBI, sacrifice 2 days
[5] = 15 mg/kg s.c. single, 30 min post-sTBI, sacrifice 2 days
[6] = rats, 7 days post-sTBI, repeated administration of 15 mg/kg b.w.
[7] = rats, 7 days post-sTBI, single administration of 1 mg/kg b.w.
[8] = rats, 7 days post-sTBI, single administration of 5 mg/kg b.w.
[9] = rats, 7 days post-sTBI, single administration of 15 mg/kg b.w.

## low molecular weight dextran sulfate [LMW-DS]
[1]; [3]
  GLN, brain concentration: 4.37 ± 0.59 nmol/g w.w.
  LYS, brain concentration: 0.29 ± 0.11 nmol/g w.w.
  ORN, brain concentration: 0.02 ± 0.01 nmol/g w.w.
  THR, brain concentration: 0.70 ± 0.15 nmol/g w.w.
  VAL, brain concentration: 0.07 ± 0.03 nmol/g w.w.
[1]; [4]
  ORN, brain concentration: 0.01 ± 0.01 nmol/g w.w.
  THR, brain concentration: 0.77 ± 0.17 nmol/g w.w.
  VAL, brain concentration: 0.08 ± 0.03 nmol/g w.w.
[1]; [5]
  GLN, brain concentration: 4.21 ± 0.51 nmol/g w.w.
  LEU, brain concentration: 0.04 ± 0.01 nmol/g w.w.
  ORN, brain concentration: 0.02 ± 0.01 nmol/g w.w.
  VAL, brain concentration: 0.06 ± 0.03 nmol/g w.w.
[1]; 2 days post sTBI
  isoleucine (ILE): restored
  osmolyte and aromatic free amino acids: No remarkable effects
[1]; 2 days post sTBI, 15 mg/kg b.w.
  free amino acids involved in NO generation (ARG, CITR): particularly effective
[1]; 2 days post sTBI, 5 or 15 mg/kg b.w.
  free amino acids involved in neurotransmission: partly effective
[1]; 2 days post sTBI, any dose tested
  methionine: Restoration
[1]; 7 days post sTBI
  TAU concentrations: normalized
  aromatic amino acids: caused the increase
[1]; 7 days post sTBI, 15 mg/kg b.w. single or repeat
  GLU: normalization
[1]; 7 days post sTBI, 5 or 15 mg/kg b.w. (single and repeat)
  free amino acids involved in NO generation (ARG, CITR): particularly effective
[1]; 7 days post sTBI, highest dose
  L-Cystathionine (L-Cystat): significant increase
[1]; 7 days post sTBI, highest dose, single or repeat
  MET: Increase
[1]; [6]
  ALA concentration in deproteinized brain homogenates: 0.47 ± 0.05 nmol/g w.w.
  ASN concentration in deproteinized brain homogenates: 0.10 ± 0.02 nmol/g w.w.
  CITR concentration in deproteinized brain homogenates: 0.03 ± 0.01 nmol/g w.w.
  GLN concentration in deproteinized brain homogenates: 3.88 ± 0.4 µmol/g w.w.
  HYS concentration in deproteinized brain homogenates: 0.06 ± 0.01 nmol/g w.w.
  ILE concentration in deproteinized brain homogenates: 0.03 ± 0.01 nmoL/g w.w.
  LEU concentration in deproteinized brain homogenates: 0.04 ± 0.01 nmoL/g w.w.
  LYS concentration in deproteinized brain homogenates: 0.23 ± 0.07 nmoL/g w.w.
  MET concentration in deproteinized brain homogenates: 0.05 ± 0.01 nmol/g w.w.
  THR concentration in deproteinized brain homogenates: 0.77 ± 0.14 nmol/g w.w.
  TYR concentration in deproteinized brain homogenates: 0.14 ± 0.02 nmol/g w.w.
  VAL concentration in deproteinized brain homogenates: 0.07 ± 0.01 nmoL/g w.w.
[1]; [7]
  ASN concentration in deproteinized brain homogenates: 0.10 ± 0.02 nmol/g w.w.
  CITR concentration in deproteinized brain homogenates: 0.03 ± 0.01 nmol/g w.w.
  GLN concentration in deproteinized brain homogenates: 4.1 ± 0.42 µmol/g w.w.
  HYS concentration in deproteinized brain homogenates: 0.06 ± 0.01 nmol/g w.w.
  LYS concentration in deproteinized brain homogenates: 0.19 ± 0.06 nmoL/g w.w.
  MET concentration in deproteinized brain homogenates: 0.03 ± 0.01 nmol/g w.w.
  TAU concentration in deproteinized brain homogenates: 4.02 ± 0.51 nmol/g w.w.
  THR concentration in deproteinized brain homogenates: 0.71 ± 0.12 nmol/g w.w.
  TYR concentration in deproteinized brain homogenates: 0.13 ± 0.02 nmol/g w.w.
[1]; [8]
  ASN concentration in deproteinized brain homogenates: 0.10 ± 0.02 nmol/g w.w.
  CITR concentration in deproteinized brain homogenates: 0.03 ± 0.01 nmol/g w.w.
  GLN concentration in deproteinized brain homogenates: 3.86 ± 0.4 µmol/g w.w.
  GLY concentration in deproteinized brain homogenates: 0.88 ± 0.15 nmol/g w.w.
  HYS concentration in deproteinized brain homogenates: 0.06 ± 0.01 nmol/g w.w.
  LYS concentration in deproteinized brain homogenates: 0.21 ± 0.04 nmoL/g w.w.
  MET concentration in deproteinized brain homogenates: 0.04 ± 0.01 nmol/g w.w.
  THR concentration in deproteinized brain homogenates: 0.71 ± 0.15 nmol/g w.w.
  TRP concentration in deproteinized brain homogenates: 0.02 ± 0.01 nmol/g w.w.
  TYR concentration in deproteinized brain homogenates: 0.13 ± 0.02 nmol/g w.w.
[1]; [9]
  ASN concentration in deproteinized brain homogenates: 0.10 ± 0.02 nmol/g w.w.
  CITR concentration in deproteinized brain homogenates: 0.03 ± 0.01 nmol/g w.w.
  GLN concentration in deproteinized brain homogenates: 3.73 ± 0.38 µmol/g w.w.
  HYS concentration in deproteinized brain homogenates: 0.06 ± 0.01 nmol/g w.w.
  LYS concentration in deproteinized brain homogenates: 0.21 ±0.05 nmoL/g w.w.
  MET concentration in deproteinized brain homogenates: 0.04 ± 0.01 nmol/g w.w.
  THR concentration in deproteinized brain homogenates: 0.72 ± 0.14 nmol/g w.w.
  TYR concentration in deproteinized brain homogenates: 0.14 ± 0.02 nmol/g w.w.
[2]; 150 nM to 4 μM
  CD69: increased
  EGFR: increased
  Eotaxin 3 (Eot3): increased
  I-TAC: decreased
  IL-8: increased
  IP-10: decreased
  M-CSF: decreased
  MCP-1: decreased
  MIG: decreased
  MMP-1: increased
  PAI-1: increased
  VCAM-1: decreased
  cytotoxicity for human primary cells: not cytotoxic; also recorded: noncytotoxic
  sTNFα: decreased
  secreted immunoglobulin G (sIgG): decreased
  thrombomodulin (TM): increased
  uPAR: increased
[2]; 150 nM, 440 nM, 1.3 μM, 4 μM
  annotated readouts in BioMAP profile: 25
[2]; top concentration only (4 μM)
  proliferation of human primary endothelial cells: modestly and selectively antiproliferative
